These are literature values, as cited in US8679103B2, “Two step mammalian biofilm treatment processes and systems” (priority 2008, dated 2014).

The series relates to S. aureus Xen 31. As to conditions: stated as established.

Converted amounts (≈) assume the structure as drawn.

For `O=C(O)c1cn(C2CC2)c2cc(N3CCNCC3)c(F)cc2c1=O` [ciprofloxacin], the minimum inhibitory concentration was 3 µg/mL (≈ 9.05 µM).
